Where two headings read alike, the source gives them in different places.

Data on three compounds can be found in patent publication US10105357B2, “Indication of antibiotic drugs for preparation of cancer inhibition pharmaceutical composition” (LAUNX BIOMEDICAL CO., LTD., priority 2014, dated 2018).

The subject of series [1] is HI650 (Lung Adenocarcinoma). The experiment in a line: Cell viability analysis, lung cancer HI650. It is filed as cell-based, human. The conditions noted are these: Homo sapiens.
Series [2] relates to A549 (Lung Adenocarcinoma). The experiment in a line: Cell viability analysis, lung cancer A549. It is filed as cell-based, human. The settings on record: Homo sapiens.
The subject of series [3] is AGS (Gastric Adenocarcinoma). The experiment in a line: Cell viability analysis, gastric cancer AGS. The settings on record: Homo sapiens. In kind it is cell-based, human.
Series [4] deals with HepG2 (Hepatocellular Carcinoma). The experiment in a line: Cell viability analysis, hepatic cancer HepG2. It is filed as cell-based, human. The conditions noted are these: Homo sapiens, HepG2, 72 h.
In series [5] the test system is LoVo (Colorectal Adenocarcinoma). The experiment in a line: Cell viability analysis, colon cancer LoVo. In kind it is cell-based, human. The settings on record: Homo sapiens, LoVo.
Series [6] deals with A375 (Amelanotic Melanoma). The experiment in a line: Cell viability analysis, skin cancer A375. In kind it is cell-based, human. The conditions noted are these: Homo sapiens.
In series [7] the test system is HeLa (Cervix Adenocarcinoma). The experiment in a line: Cell viability analysis, cervical cancer HeLa. It is filed as cell-based, human. The conditions noted are these: Homo sapiens, HeLa.
Series [8] has as its system PC3 (p53−) (Prostate Adenocarcinoma). The experiment in a line: Cell viability analysis, prostate cancer PC3. The settings on record: Homo sapiens. It is filed as cell-based, human.
For series [9], the system named is TSGH-8301 (Urinary Bladder Carcinoma). The experiment in a line: Cell viability analysis, bladder cancer TSGH-8301. It is filed as cell-based, human. The conditions noted are these: Homo sapiens.
In series [10] the test system is HL-60 (Acute Promyelocytic Leukemia). The experiment in a line: Cell viability analysis, leukemia HL-60. It is filed as cell-based, human. The conditions noted are these: Homo sapiens.
Series [11] concerns HCT116 (p53+) (Colorectal Carcinoma). The experiment in a line: cells. The conditions noted are these: Homo sapiens, HCT-116, 72 h, read-out: cell viability (survival rate), HCT116.
In a further series the test system is cancer cell lines. The experiment in a line: Cell viability analysis (WST-1) on cancer cell lines. In kind it is cell-based, human. The conditions noted are these: drug 10 μM, 72 hours, WST-1; Table 3. In general terms: Tetrazolium dyes change colour on reduction, which living cells bring about.
Series [12] deals with MKN-45 (Gastric Adenocarcinoma). The experiment in a line: Cell viability analysis, gastric cancer MKN-45. The settings on record: Homo sapiens. It is filed as cell-based, human.
Series [13] concerns Hep3B (hepatocellular carcinoma). The experiment in a line: Cell viability analysis, hepatic cancer Hep3B. It is filed as cell-based, human. The conditions noted are these: Homo sapiens, Hep3B, 72 h, read-out: The results of antibiotic drug inhibiting cancer cell lines (cell viability analysis), Hep3B.
Series [14] deals with BCC (basal cell carcinoma). The experiment in a line: Cell viability analysis, skin cancer BCC. In kind it is cell-based, human. The conditions noted are these: Homo sapiens, 72 h, read-out: The results of antibiotic drug inhibiting cancer cell lines (cell viability analysis), BCC.
Series [15] has as its system C-33A (Cervical carcinoma). The experiment in a line: Cell viability analysis, cervical cancer C-33A. It is filed as cell-based, human. The settings on record: Homo sapiens, C-33-A, 72 h, read-out: The results of antibiotic drug inhibiting cancer cell lines (cell viability analysis), C-33A.
The next series has as its system T24. The experiment in a line: Cell viability analysis, bladder cancer T24. It is filed as cell-based, human. The settings on record: Homo sapiens, T-24, 72 h, read-out: The results of antibiotic drug inhibiting cancer cell lines (cell viability analysis), T24.
Series [16] concerns MCF7 (Mammary Gland, Adenocarcinoma). The experiment in a line: Cell viability analysis, breast cancer MCF7. In kind it is cell-based, human. The conditions noted are these: Homo sapiens.
The subject of series [17] is MDA-MB-231 (Mammary Gland, Adenocarcinoma). The experiment in a line: Cell viability analysis, breast cancer MDA-MB-231. The settings on record: Homo sapiens, MDA-MB-231, 72 h, read-out: The results of antibiotic drug inhibiting cancer cell lines (cell viability analysis), MDA-MB231. It is filed as cell-based, human.
A further series deals with BxPC-3. The experiment in a line: Cell viability analysis, pancreatic cancer BxPC-3. In kind it is cell-based, human. The settings on record: Homo sapiens, BXPC-3, 72 h, read-out: The results of antibiotic drug inhibiting cancer cell lines (cell viability analysis), BxPC-3.
For another series, the system named is AsPC-1. The experiment in a line: Cell viability analysis, pancreatic cancer AsPC-1. The settings on record: Homo sapiens, ASPC1, 72 h, read-out: The results of antibiotic drug inhibiting cancer cell lines (cell viability analysis), AsPC-1. In kind it is cell-based, human.
For another series, the system named is NIH: OVCAR-3. The experiment in a line: Cell viability analysis, ovarian cancer NIH: OVCAR-3. In kind it is cell-based, human. The settings on record: Homo sapiens, OVCAR-3, 72 h, read-out: The results of antibiotic drug inhibiting cancer cell lines (cell viability analysis), NIH-OVCAR-3.
For the next series, the system named is TOV-21G. The experiment in a line: Cell viability analysis, ovarian cancer TOV-21G. The conditions noted are these: Homo sapiens, TOV21G, 72 h, read-out: The results of antibiotic drug inhibiting cancer cell lines (cell viability analysis), TOV-21G. It is filed as cell-based, human.
The subject of series [18] is SAS (Tongue squamous cell carcinoma). The experiment in a line: Cell viability analysis, tongue cancer SAS. In kind it is cell-based, human. The settings on record: Homo sapiens, 72 h, read-out: The results of antibiotic drug inhibiting cancer cell lines (cell viability analysis), SAS.
Another series has as its system U-2OS. The experiment in a line: Cell viability analysis, osteosarcoma U-2OS. It is filed as cell-based, human. The conditions noted are these: Homo sapiens, U2OS, 72 h, read-out: The results of antibiotic drug inhibiting cancer cell lines (cell viability analysis), U2OS.
The test system of series [19] is 786-O (Renal adenocarcinoma). The experiment in a line: Cell viability analysis, renal cancer 786-O. It is filed as cell-based, human. The settings on record: Homo sapiens, 786-0, 72 h, read-out: The results of antibiotic drug inhibiting cancer cell lines (cell viability analysis), 786-O.
The subject of series [20] is HCT116 (p53+) (Colorectal Carcinoma).
[21] abbreviates: NCI-H1650, 72 h, read-out: cell viability (survival rate), H1650, drug 10 μM, 72 hours, WST-1, OD450 nm.
Setting [22] is: A549, 72 h, read-out: cell viability (survival rate), A549, drug 10 μM, 72 hours, WST-1, OD450 nm.
[23] abbreviates: 72 h, read-out: cell viability (survival rate), AGS, drug 10 μM, 72 hours, WST-1, OD450 nm.
Setting [24] is: read-out: cell viability (survival rate), HepG2, drug 10 μM, 72 hours, WST-1, OD450 nm.
Setting [25] is: 72 h, read-out: cell viability (survival rate), LoVo, drug 10 μM, 72 hours, WST-1, OD450 nm.
Setting [26] is: A-375, 72 h, read-out: cell viability (survival rate), A375, drug 10 μM, 72 hours, WST-1, OD450 nm.
Setting [27] is: 72 h, read-out: cell viability (survival rate), PC3, drug 10 μM, 72 hours, WST-1, OD450 nm.
[28] abbreviates: 72 h, read-out: cell viability (survival rate), TSGH, drug 10 μM, 72 hours, WST-1, OD450 nm.
Setting [29] is: HL-60, 72 h, read-out: cell viability (survival rate), HL-60, drug 10 μM, 72 hours, WST-1, OD450 nm.

Broadly, the viability is a read-out of living cells in per cent, often relative to untreated cells. Consider `O=c1ccc2ccccc2o1` [Coumarin], for which the viability at 10 µM was 95.6% in [1] (setting [21]); 91.8% in series [2] (setting [22]); 98.5% in series [3] (setting [23]); 100% in [4] (setting [24]); 88.3% in series [5] (setting [25]); 157% in series [6] (setting [26]). Also, the viability at 10 µM in [7] (72 h, read-out: cell viability (survival rate), HeLa, drug 10 μM, 72 hours, WST-1, OD450 nm) turned out to be 96.5%; in [8] (setting [27]) it was 86.3%; in series [9] (setting [28]), 108%; in [10] (setting [29]), 102%; in [11] it was 93.7%.

On to `CN(C)c1cc(NC(=O)CNC(C)(C)C)c(O)c2c1C[C@H]1C[C@H]3[C@H](N(C)C)C(O)=C(C(N)=O)C(=O)[C@@]3(O)C(O)=C1C2=O` [Tigecycline], for which, in the series on cancer cell lines, the “inhibition effect on different cancer cell lines” value is listed as “significant inhibition effect”. The viability at 10 µM is 66.9% in series [1] (NCI-H1650, 72 h, read-out: The results of antibiotic drug inhibiting cancer cell lines (cell viability analysis), H1650, H1650, repeated experiment); 53.1% in series [1] (setting [21]); 91.5% in series [2] (A549, 72 h, read-out: The results of antibiotic drug inhibiting cancer cell lines (cell viability analysis), A549, A549, repeated experiment); 55.9% in series [2] (setting [22]); 90.6% in series [3] (72 h, read-out: The results of antibiotic drug inhibiting cancer cell lines (cell viability analysis), AGS, repeated experiment); 49.4% in series [3] (setting [23]). Besides, the viability at 10 µM in series [12] (MKN-45, 72 h, read-out: The results of antibiotic drug inhibiting cancer cell lines (cell viability analysis), MKN-45, MKN-45, repeated experiment) is 114%; in series [12] (MKN-45, 72 h, read-out: cell viability (survival rate), MKN-45, drug 10 μM, 72 hours, WST-1, OD450 nm), 89.2%; in series [4] (read-out: The results of antibiotic drug inhibiting cancer cell lines (cell viability analysis), HepG2, HepG2, repeated experiment), 97.2%; in [4] (setting [24]) it was 102%; in [13], 106%; in series [5] (72 h, read-out: The results of antibiotic drug inhibiting cancer cell lines (cell viability analysis), LoVo, repeated experiment), 96%. The viability at 10 µM in series [5] (setting [25]) turned out to be 82.4%; in [6] (A-375, 72 h, read-out: The results of antibiotic drug inhibiting cancer cell lines (cell viability analysis), A375, A375, repeated experiment) it was 83.2%; in [6] (setting [26]), 52.2%; in [14], 79.9%; in [7] (72 h, read-out: The results of antibiotic drug inhibiting cancer cell lines (cell viability analysis), HeLa, repeated experiment), 102%; in [15], 100%. Also, the viability at 10 µM is 112% in series [8] (72 h, read-out: The results of antibiotic drug inhibiting cancer cell lines (cell viability analysis), PC-3, PC-3, repeated experiment); 83% in series [8] (setting [27]); 113% in series [9] (72 h, TSGH-8301, repeated experiment, read-out: The results of antibiotic drug inhibiting cancer cell lines (cell viability analysis), TSGH-8301); 98.5% in series [9] (setting [28]); 109% in the series on T24; 79.1% in [16] (MCF7, 72 h, read-out: The results of antibiotic drug inhibiting cancer cell lines (cell viability analysis), MCF-7, MCF-7, repeated experiment). Moreover, the viability at 10 µM in [16] (MCF7, 72 h, read-out: cell viability (survival rate), MCF7, drug 10 μM, 72 hours, WST-1, OD450 nm) is 71.1%; in [17], 93.4%; with BxPC-3, 75.6%; with AsPC-1, 86.5%; in the series on NIH: OVCAR-3, 91.1%; with TOV-21G, 67.1%. Also, the viability at 10 µM in [18] turned out to be 66.2%; in the series with U-2OS it was 84%; in series [19], 100%; in series [10] (setting [29]), 97.6%. The viability in series [20] amounted to 89.7%.

Consider `c1ccc2c(c1)sc1ccccc12` [Dibenzothiophene], for which the viability at 10 µM came to 76.1% in [1] (NCI-H1650, drug 10 μM, 72 hours, WST-1, OD450 nm, read-out: cell viability (survival rate), H1650); 62.3% in series [2] (A549, drug 10 μM, 72 hours, WST-1, OD450 nm, read-out: cell viability (survival rate), A549); 59.2% in series [3] (drug 10 μM, 72 hours, WST-1, OD450 nm, read-out: cell viability (survival rate), AGS); 92.1% in [12] (MKN-45, drug 10 μM, 72 hours, WST-1, OD450 nm, read-out: cell viability (survival rate), MKN-45); 79.7% in series [5] (drug 10 μM, 72 hours, WST-1, OD450 nm, read-out: cell viability (survival rate), LoVo); 70.6% in [6] (A-375, drug 10 μM, 72 hours, WST-1, OD450 nm, read-out: cell viability (survival rate), A375). For the same compound, the viability at 10 µM stood at 94.6% in series [7] (drug 10 μM, 72 hours, WST-1, OD450 nm, read-out: cell viability (survival rate), HeLa); 80.2% in series [8] (drug 10 μM, 72 hours, WST-1, OD450 nm, read-out: cell viability (survival rate), PC3); 88.2% in series [9] (drug 10 μM, 72 hours, WST-1, OD450 nm, read-out: cell viability (survival rate), TSGH); 71.4% in series [16] (MCF7, drug 10 μM, 72 hours, WST-1, OD450 nm, read-out: cell viability (survival rate), MCF7); 110% in series [10] (HL-60, drug 10 μM, 72 hours, WST-1, OD450 nm, read-out: cell viability (survival rate), HL-60); 52.7% in series [11].
